In patent US20230233500A1, “Gasdermin D (GSDMD) Succination for the Treatment of Inflammatory Disease” (University of Massachusetts, priority 2020, published 2023):
“Also recorded” adds a separate entry of the source. Counter-ions that a name gives are not always drawn. Like-named read-outs stand apart in the source and are kept apart here.

Key:
h.GSDME = target: T1, h.GSDME (Homo sapiens, UniProt O60443); test: In vitro succination reaction with LC-MS/MS peptide mapping; assay type: binding
T1 sequence (O60443 1-496): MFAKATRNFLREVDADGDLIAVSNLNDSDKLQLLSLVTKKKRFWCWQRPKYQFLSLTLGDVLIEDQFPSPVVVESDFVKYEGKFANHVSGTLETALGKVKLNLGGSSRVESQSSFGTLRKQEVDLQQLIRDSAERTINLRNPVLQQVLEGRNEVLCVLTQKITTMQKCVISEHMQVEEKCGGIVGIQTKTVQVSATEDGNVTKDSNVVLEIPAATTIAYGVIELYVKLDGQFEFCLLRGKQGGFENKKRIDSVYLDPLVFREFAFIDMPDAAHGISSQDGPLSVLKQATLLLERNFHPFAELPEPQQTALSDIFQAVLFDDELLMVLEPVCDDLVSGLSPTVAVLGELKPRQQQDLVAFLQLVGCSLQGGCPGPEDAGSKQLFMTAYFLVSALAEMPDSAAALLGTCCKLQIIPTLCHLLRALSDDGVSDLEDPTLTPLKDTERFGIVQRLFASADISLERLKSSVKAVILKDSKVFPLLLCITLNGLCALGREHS

[1] = test system: GSDMD-deficient THP1 cells; test: Kinetic cell death in GSDMD-/- THP1 cells; assay type: cell-based, human
Text: FIGS. 3A-J. Fumarate targets GSDMD and Gasdermin E (GSDME). Kinetic cell death of WT and Gsdmd-BMDMs (A) or WT/GSDMD^-/- THP1 cells (B) treated as indicated. LDH and IL-1β release from WT and Gsdmd^-/- BMDMs (C-D). Immunoblot of GSDMD and GSDME in native and reduced cell lysates from BMDMs (E). Immunoblot of GSDME in streptavidin pulldown from clicked lysates (F). Representative Mass spectra of succinated GSDME (G-H). Immunoblot analysis of GSDMD and GSDME from WT and […]^-/- BMDMs (I). A, B representative of three independent experiments. C, D, I pooled data from three independent experiments. E, F, J representative images from 3 independent experiments. ***, P<0.0001, […] (Two-way ANOVA). Error bars show means±SEM. Cells were plated, treated and incubated in phenol red free medium. Following treatment medium was collected and assessed for LDH release using the CytoTox96 non-radioactive cytotoxicity assay (Promega) as per manufacturer's instructions. Kinetic cell death assays were performed using SytoxOrange and the Biotek Cytation5.

GSDMD = target: T2, GSDMD (Mus musculus, UniProt Q9D8T2); test: Tandem MS of GSDMD immunoprecipitated from treated BMDMs; assay type: cell-based; conditions: GSDMD immunoprecipitated from fumarate treated BMDMs
T2 construct: We also immunoprecipitated GSDMD from fumarate treated BMDMs; endogenous in cells; host or cells: primary mouse BMDMs
T2 sequence (Q9D8T2 1-487): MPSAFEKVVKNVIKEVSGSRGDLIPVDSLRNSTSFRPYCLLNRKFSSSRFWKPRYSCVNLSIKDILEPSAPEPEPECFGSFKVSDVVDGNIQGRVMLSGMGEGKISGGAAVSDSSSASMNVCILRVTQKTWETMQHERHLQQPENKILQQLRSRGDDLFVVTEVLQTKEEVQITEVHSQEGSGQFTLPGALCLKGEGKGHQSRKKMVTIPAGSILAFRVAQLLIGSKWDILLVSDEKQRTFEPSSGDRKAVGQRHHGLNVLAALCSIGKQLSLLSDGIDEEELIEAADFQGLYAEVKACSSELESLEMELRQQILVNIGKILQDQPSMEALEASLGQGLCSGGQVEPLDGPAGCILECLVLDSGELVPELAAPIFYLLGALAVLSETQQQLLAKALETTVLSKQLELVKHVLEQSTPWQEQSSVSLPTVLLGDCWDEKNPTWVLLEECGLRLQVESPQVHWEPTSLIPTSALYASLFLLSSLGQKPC

COC(=O)/C=C/C(=O)OC [Fumarate, Dimethyl fumarate]
In vitro cysteine succination sites (h.GSDME): Cys^45 | In vitro cysteine succination sites (h.GSDME; listed as DMF): Cys235; also recorded: Cys371; also recorded: Cys408; also recorded: Cys489; also recorded: Cys45; also recorded: Cys156; also recorded: Cys180 | cell death [1]: inhibited cell death | 2-monomethyl and 2-dimethyl succination sites of GSDMD in cells (GSDMD): Cys^192; also recorded: Cys^57; also recorded: Cys^77
